Data from a compilation of properties of binary mixtures (doi:10.1007/s10953-023-01258-3).

Experiment: xn = mol fraction of the nth substance listed
Details: 101 kPa

CS(C)=O + Cn1cc[n+](CCCN)c1.F[B-](F)(F)F
x2 = 0
Details	viscosity [mPa·s]
288.15 K	2.605
293.15 K	2.318
298.15 K	2.089
303.15 K	1.886
308.15 K	1.717
313.15 K	1.575
318.15 K	1.447
323.15 K	1.341
333.15 K	1.164
338.15 K	1.097
343.15 K	1.034
348.15 K	0.981
353.15 K	0.934

Cn1cc[n+](CCCN)c1.F[B-](F)(F)F + CS(C)=O
Details	electrical conductivity [S/m]	viscosity [mPa·s]
288.15 K, x1 = 0.1003	0.829	17.63
288.15 K, x1 = 0.2	0.632	34.87
288.15 K, x1 = 0.2997	0.465	54.65
288.15 K, x1 = 0.3997	0.288	75.94
288.15 K, x1 = 0.4998	0.187	98.4
288.15 K, x1 = 0.5999	0.124	122.2
288.15 K, x1 = 0.7001	0.078	147.4
288.15 K, x1 = 0.8109	0.044	176.7
288.15 K, x1 = 0.8998	0.023	201.6
288.15 K, x1 = 1	0.011	231.2
293.15 K, x1 = 0.1003	0.943	13.32
293.15 K, x1 = 0.2	0.716	26.44
293.15 K, x1 = 0.4998	0.222	76.63
293.15 K, x1 = 0.7001	0.097	116.9
293.15 K, x1 = 0.8109	0.056	140.8
293.15 K, x1 = 1	0.018	185.4
298.15 K, x1 = 0.2	0.81	20.51
298.15 K, x1 = 0.2997	0.609	32.66
298.15 K, x1 = 0.3997	0.395	45.88
298.15 K, x1 = 0.4998	0.268	60.22
298.15 K, x1 = 0.5999	0.186	76.06
298.15 K, x1 = 0.7001	0.122	93.45
298.15 K, x1 = 0.8109	0.072	113.4
298.15 K, x1 = 0.8998	0.046	130.1
303.15 K, x1 = 0.1003	1.22	7.961
303.15 K, x1 = 0.2	0.919	16.1
303.15 K, x1 = 0.3997	0.462	36.37
303.15 K, x1 = 0.4998	0.317	47.87
303.15 K, x1 = 0.5999	0.228	60.72
303.15 K, x1 = 1	0.04	121.1
308.15 K, x1 = 0.1003	1.37	6.38
308.15 K, x1 = 0.2	1.05	13.1
308.15 K, x1 = 0.2997	0.799	20.89
308.15 K, x1 = 0.3997	0.533	29.16
308.15 K, x1 = 0.4998	0.37	38.73
308.15 K, x1 = 0.5999	0.271	49.63
308.15 K, x1 = 0.7001	0.183	61.64
308.15 K, x1 = 0.8998	0.082	87.11
313.15 K, x1 = 0.2	1.17	10.81
313.15 K, x1 = 0.2997	0.894	17.08
313.15 K, x1 = 0.3997	0.617	24.03
313.15 K, x1 = 0.4998	0.435	31.72
313.15 K, x1 = 0.7001	0.221	50.72
313.15 K, x1 = 0.8998	0.105	72.01
313.15 K, x1 = 1	0.072	83.06
318.15 K, x1 = 0.1003	1.71	4.406
318.15 K, x1 = 0.2	1.32	8.853
318.15 K, x1 = 0.2997	1.01	14.22
318.15 K, x1 = 0.4998	0.506	26.45
318.15 K, x1 = 0.5999	0.378	33.63
318.15 K, x1 = 0.8109	0.183	51.83
318.15 K, x1 = 0.8998	0.134	60.04
318.15 K, x1 = 1	0.094	69.26
323.15 K, x1 = 0.1003	1.91	3.679
323.15 K, x1 = 0.2	1.47	7.468
323.15 K, x1 = 0.2997	1.13	11.79
323.15 K, x1 = 0.3997	0.81	16.67
323.15 K, x1 = 0.5999	0.446	28.21
323.15 K, x1 = 0.7001	0.314	35.29
323.15 K, x1 = 0.8109	0.223	43.46
323.15 K, x1 = 0.8998	0.17	50.38
328.15 K, x1 = 0.2997	1.26	10.06
328.15 K, x1 = 0.4998	0.659	18.73
328.15 K, x1 = 0.5999	0.515	24.2
328.15 K, x1 = 0.7001	0.369	30.06
328.15 K, x1 = 0.8109	0.269	37.19
328.15 K, x1 = 0.8998	0.21	43.13
328.15 K, x1 = 1	0.159	50.12
333.15 K, x1 = 0.1003	2.3	2.79
333.15 K, x1 = 0.2	1.78	5.508
333.15 K, x1 = 0.3997	1.04	12.05
333.15 K, x1 = 0.4998	0.749	16.07
333.15 K, x1 = 0.5999	0.593	20.41
333.15 K, x1 = 0.7001	0.431	25.32
333.15 K, x1 = 0.8109	0.323	31.21
333.15 K, x1 = 0.8998	0.258	36.19
333.15 K, x1 = 1	0.203	42.31
338.15 K, x1 = 0.1003	2.53	2.4
338.15 K, x1 = 0.2	1.97	4.865
338.15 K, x1 = 0.2997	1.55	7.311
338.15 K, x1 = 0.4998	0.849	13.77
338.15 K, x1 = 0.5999	0.682	17.48
338.15 K, x1 = 0.7001	0.496	21.74
338.15 K, x1 = 0.8998	0.312	31.24
343.15 K, x1 = 0.2	2.17	4.241
343.15 K, x1 = 0.2997	1.71	6.401
343.15 K, x1 = 0.3997	1.3	8.856
343.15 K, x1 = 0.4998	0.948	11.78
343.15 K, x1 = 0.7001	0.572	19.03
343.15 K, x1 = 0.8109	0.449	23.52
343.15 K, x1 = 0.8998	0.374	27.44
343.15 K, x1 = 1	0.308	32.15
348.15 K, x1 = 0.1003	3.02	2.048
348.15 K, x1 = 0.2	2.37	3.722
348.15 K, x1 = 0.2997	1.88	5.565
348.15 K, x1 = 0.3997	1.46	7.954
348.15 K, x1 = 0.4998	1.07	10.3
348.15 K, x1 = 0.5999	0.877	13.38
348.15 K, x1 = 0.7001	0.656	16.16
348.15 K, x1 = 0.8109	0.524	20.12
348.15 K, x1 = 0.8998	0.445	23.5
348.15 K, x1 = 1	0.374	27.51
353.15 K, x1 = 0.1003	3.27	1.997
353.15 K, x1 = 0.2	2.58	3.564
353.15 K, x1 = 0.2997	2.07	5.199
353.15 K, x1 = 0.4998	1.19	9.541
353.15 K, x1 = 0.5999	0.978	12.09
353.15 K, x1 = 0.7001	0.749	14.98
353.15 K, x1 = 0.8109	0.608	18.65
353.15 K, x1 = 0.8998	0.522	21.71
353.15 K, x1 = 1	0.457	25.41
